Assays:
Type in all cases: functional
Settings in all cases: route oral
Mus musculus [1] = assay: Percentage of the number of platelets for the treated versus mitomycin C(MMC) control group in the MMC-induced thrombocytopenic mice at a dose of 100 mg/kg following peroral administration
Mus musculus [2] = assay: Percentage of the number of platelets for the treated versus mitomycin C(MMC) control group in the MMC-induced thrombocytopenic mice at a dose of 10 mg/kg following peroral administration
Mus musculus [3] = assay: Percentage of the number of platelets for the treated versus mitomycin C(MMC) control group in the MMC-induced thrombocytopenic mice at a dose of 32 mg/kg following peroral administration

Compound	No. of platelets (Mus musculus [1])	No. of platelets (Mus musculus [2])	No. of platelets (Mus musculus [3])
Nc1ncc([S+]([O-])c2nccs2)s1 (configuration not stated)	146%		
[O-][S+](c1ccccn1)c1cncs1 (configuration not stated)	171%	124%	148%
Nc1ncc([S+]([O-])c2cccc3cccnc23)s1 (configuration not stated)	188%	116%	123%
Nc1ncc([S+]([O-])c2ccc3ccccc3n2)s1 (configuration not stated)	181%	138%	153%
Cc1ccc2nc([S+]([O-])c3cnc(N)s3)ccc2c1 (configuration not stated)	146%		
Nc1ncc([S+]([O-])c2nc3ccccc3[nH]2)s1 (configuration not stated)	165%	92%	112%
Nc1ncc([S+]([O-])c2ccccn2)s1 (configuration not stated)			154%
Nc1ncc([S+]([O-])c2ncccn2)s1 (configuration not stated)			116%
Nc1ncc([S+]([O-])c2ccc3cc(F)ccc3n2)s1 (configuration not stated)	162%		
Nc1ncc([S+]([O-])c2cccnc2)s1 (configuration not stated)			115%
Nc1ncc(S(=O)(=O)c2ccccn2)s1	139%	94%	143%
Nc1ncc(C(=O)c2ccccn2)s1	140%		
Nc1ncc(Sc2ccccn2)s1	147%		
Nc1ncc([S+]([O-])c2cnc3ccccc3n2)s1 (configuration not stated)	131%		
Nc1ncc([S+]([O-])c2cccs2)s1 (configuration not stated)	138%		
CNc1ncc([S+]([O-])c2ccccn2)s1 (configuration not stated)	132%		
Nc1ncc([S+]([O-])c2ccc3cccnc3n2)s1 (configuration not stated)			130%
Cc1nc(N)sc1[S+]([O-])c1ccccn1 (configuration not stated)	118%		
Nc1nnc([S+]([O-])c2ccc3ccccc3n2)s1 (configuration not stated)	102%		
Nc1ccc(S(=O)(=O)c2ccc(N)cc2)cc1 [DAPSONE]	150%	91%	125%
